This assay concerns the target T1, 5-LO (Rattus norvegicus, UniProt P12527).
T1 construct: liberation of LTB4 induced by zymosan within an air pouch generated within the subcutaneous tissue of the back of male rats; endogenous in cells; host or cells: cells in the air pouch of living male rats (in vivo)
T1 sequence (P12527 1-673): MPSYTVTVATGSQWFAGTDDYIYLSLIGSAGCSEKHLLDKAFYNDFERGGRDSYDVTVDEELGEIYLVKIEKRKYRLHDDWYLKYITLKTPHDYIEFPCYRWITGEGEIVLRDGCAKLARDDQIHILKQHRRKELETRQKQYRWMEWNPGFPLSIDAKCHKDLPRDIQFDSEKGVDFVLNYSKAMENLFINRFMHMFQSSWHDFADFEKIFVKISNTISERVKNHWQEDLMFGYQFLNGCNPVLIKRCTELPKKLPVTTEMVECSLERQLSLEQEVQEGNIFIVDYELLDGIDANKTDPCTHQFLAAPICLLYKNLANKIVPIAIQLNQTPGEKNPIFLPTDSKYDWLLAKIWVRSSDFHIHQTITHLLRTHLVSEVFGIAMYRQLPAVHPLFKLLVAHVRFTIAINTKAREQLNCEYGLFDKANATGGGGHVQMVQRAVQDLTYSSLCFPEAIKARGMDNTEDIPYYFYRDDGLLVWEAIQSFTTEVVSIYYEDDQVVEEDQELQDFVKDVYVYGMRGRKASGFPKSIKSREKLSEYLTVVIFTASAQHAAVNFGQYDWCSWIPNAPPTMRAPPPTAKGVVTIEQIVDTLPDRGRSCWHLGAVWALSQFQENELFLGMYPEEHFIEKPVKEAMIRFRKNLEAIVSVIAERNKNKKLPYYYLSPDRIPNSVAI
The experiment in a line: Test g) zymosan-induced liberation of LTB4 within an air pouch in male rats. It is filed as in vivo. The following applies: rat, 3 h; test g), oral. As to the method:
g) An in vivo system involving measuring the effects of a test compound administered orally against the liberation of LTB4 induced by zymosan within an air pouch generated within the subcutaneous tissue of the back of male rats. The rats are anaesthetised and air pouches are formed by the injection of sterile air (20 ml). A further injection of air (10 ml) is similarly given after 3 days. At 6 days after the initial air injection the test compound is administered (usually orally as the suspension produced when a solution of the test compound in dimethylsulphoxide is added to hydroxypropylmethylcellulose), followed by the intrapouch injection of zymosan (1 ml of a 1% suspension in physiological saline). After 3 hours the rats are killed, the air pouches are lavaged with physiological saline, and the specific radioimmunoassay described above is used to assay LTB4 in the washings. This test provides an indication of inhibitory effects against 5-LO in an inflammatory milieu.

This note sets out measurements from patent publication US5364877A, “Indole derivatives as 5-lipoxygenase inhibitors” (ICI Pharma, priority 1990, dated 1994).

On to `COC1(c2cccc(Sc3ccc4c(c3)n(C)c(=O)n4C)c2)CCOCC1` [Example 1, 4-[3-(1,3-dimethyl-2-oxo-2,3-dihydrobenzimidazol-5-ylthio)phenyl]-4-methoxytetrahydropyran], for which the ED50 was less than 2 mg/kg.

Broadly, the ED50 is the dose at which the effect has come halfway, by size or by number of responders.
